We go through two molecules from patent US20230273220A1, “METHODS FOR PREDICTION, DETECTION AND MONITORING OF SUBSTANCEUSE DISORDERS AND/OR AN INFECTION” (NATIONAL HEALTH RESEARCH INSTITUTES, priority 2020, published 2023).

Data set [1] is described as follows: Plasma nicotine metabolite cotinine concentration in MMT patients subgrouped by age. In kind it is in vivo, human.
A short description of data set [2]: Self-reported skin irritation after taking methadone in MMT patients. The note with it: 15 of 344 MMT patients.
Experimental: The inclusion criteria included subjects aged 18 or above, having undergone MMT for at least three months with regular attendance for the past seven days, and a methadone dosage adjustment of not more than 10 mg in the past seven days. Exclusion criteria included co-morbidity with physical and mental disorders requiring immediate treatment and pregnancy.

Consider `CN1C(=O)CC[C@H]1c1cccnc1` [Cotinine], for which the Plasma cotinine concentration in data set [1] (MMT subjects age <45, n=275, mean ± SD) is 384.20 ± 184.90 ng/mL; in data set [1] (MMT subjects age ≥45, n=69, mean ± SD) it was 439.65 ± 203.44 ng/mL.

Consider `CCC(=O)C(CC(C)N(C)C)(c1ccccc1)c1ccccc1` (stereo not drawn) [R,S-methadone], for which the “Patients self-reporting skin irritation after taking methadone” value in data set [2] was “around 4.4%”.
